Patent publication US20110178100A1, “APOPTOSIS INHIBITOR” (NIHON UNIVERSITY, priority 2008, published 2011)
Entries after “also recorded” stand apart in the source; their conditions may differ.

What was measured:
hippocampal CA1 region = experiment: Mouse cerebral ischemia/reperfusion model, FJB and ssDNA staining of hippocampal CA1 region; format: in vivo, C57BL/6J mice; conditions: 72 hours after reperfusion
Method: Male C57BL/6J mice (9-12 week old) were used. After halothane anesthesia, the left and right common carotid arteries were ligated for 17 minutes while the cerebral blood flow was monitored. Then, the blood flow was resumed to prepare a cerebral ischemia/reperfusion model. Paraffin sections of the brain were prepared 72 hours after reperfusion according to an ordinary method and immunostained with Fluoro Jade B (FJB) that stains dead cells green or with single-stranded DNA (ssDNA) that permits detection of apoptosis cells by the staining of nuclear fragmentation. The cells were observed under a microscope. GR103691 was administered at a dose of 1, 3, or 10 mg/kg from the tail vein of each mouse within 10 minutes after reperfusion. Moreover, for comparison, edaravone (manufactured by CALBIOCHEM) used for improving neurological symptoms, problems with movement of daily living, and dysfunction at the acute stage of brain infarction was administered at a dose of 3 or 10 mg/kg to each mouse. A saline-administered group and a sham group without only ischemia treatment were observed as controls.
In FIG. 7, the bright green color represents apoptosis cells. Moreover, the number of FJB-positive cells was counted to determine its proportion to the total number of cells (FIG. 8). The results of each group are indicated as mean±standard error.

HT22 cells [1] = experiment: Hypoxia/reoxygenation-induced cell death, LDH release assay; format: cell-based
Method: (§1) HT22 cells were cultured in DMEM containing 10% FBS in a 10% CO2 incubator at 37° C.
(§2) Hypoxia loading was performed by using an oxygen absorber/CO2 generator AnaeroPack Kenki For Cell™, and reoxygenation was performed by restoring the condition to normoxia.
LDH assay was conducted using a supernatant of a medium of cells treated as intended as a sample and a measurement kit (LDH cytotoxic test).
Specifically, the cells were cultured in a 96-well assay plate and treated as intended. Then, 50 μL of only the medium was collected and transferred to a newly prepared plate. A coloring reagent was added to each well. After incubation for 20 minutes, 100 μL of a reaction stop solution was added thereto, and the absorbance at 570 nm was measured using a microplate reader. The results are indicated relative to the absorbance of control cells defined as 100%.
LDH release was measured after hypoxia for 18 hours (H18) and subsequent reoxygenation for 24 hours (R24). Cells placed under normoxia for 42 (18+24) hours (N42) were used as a control. GR103691 was added immediately before reoxygenation (or after 18-hour culture to the control cells).
LDH release was measured after hypoxia for 18 hours (H18) and subsequent reoxygenation for 24 hours (R24). Cells placed under normoxia for 42 (18+24) hours (N42) were used as a control. Nafadotride was added immediately before reoxygenation (or after 18-hour culture for the control cells).

HT22 cells [2] = experiment: Glutamic acid-induced cell death, MTT assay; format: cell-based; conditions: MTT 24 hours after glutamic acid, added immediately before glutamic acid
Method: (§3) HT22 cells were cultured in DMEM containing 10% FBS in a 10% CO2 incubator at 37° C. MTT assay was conducted according to a ordinary method by using cells treated as intended as a sample. Specifically, the cells were cultured in a 96-well assay plate and treated as intended. Then, 10 μL of an MTT solution was added to each well, followed by incubation for 4 hours. 100 μL of a reaction stop solution was added thereto. The plate was left overnight, and the absorbance (measurement wavelength: 570 nm, control wavelength: 655 nm) was then measured using a microplate reader. The results are indicated relative to the absorbance of control cells defined as 100%. In this context, the MTT value is a value that indicates mitochondrial reductive capacity. This value correlates with cell viability in many cases and is therefore used as an index of cell viability. It has been confirmed as to the glutamic acid-induced cell death of HT22 cells that the results of MTT assay correlate with cell viability. MTT assay was conducted 24 hours after addition of glutamic acid. GR103691 was added immediately before the addition of glutamic acid (Glu).

HT22 cells [3] = experiment: Tunicamycin-induced cell death, MTT assay; format: cell-based; conditions: MTT 24 hours after tunicamycin, added immediately before tunicamycin
Method: as §3, with “tunicamycin (TM).” for “glutamic acid.”, “tunicamycin (TM).” for “glutamic acid (Glu).”

HT22 cells [4] = experiment: Intracellular reactive oxygen species (ROS) assay with H2DCFDA after hypoxia-reoxygenation loading; format: cell-based; conditions: 3 μM, added immediately before reoxygenation, hypoxia 18 h, reoxygenation 3 h
Method: as §1, §2
Intracellular ROS levels were measured by using H2DCFDA. Cells were treated as intended and then treated with 5 μM H2DCFDA. After 15 minutes, the cells were observed under a fluorescence microscope (480 nm/526 nm).
Time-dependent change of ROS was examined during reoxygenation for 12 hours after hypoxia for 18 hours (H18). Cells placed under normoxia for the same hours (N30) were used as a control. GR103691 was added at a concentration of 3 μM immediately before reoxygenation (or after 18-hour culture to the control cells).

[5] = HT22 cells, added immediately before reoxygenation
[6] = HT22 cells, hypoxia 18 h, reoxygenation 24 h, added immediately before reoxygenation
[7] = 10 mg/kg from the tail vein within 10 minutes after reperfusion
[8] = 1, 3, or 10 mg/kg from the tail vein within 10 minutes after reperfusion

Row | Structure (SMILES) | decreasing effect on ssDNA-positive cells in the hippocampal CA1 region, compared with GR103691 (hippocampal CA1 region; edaravone 3 or 10 mg/kg) | inhibitory effect on cell death in the hippocampal CA1 region (FJB-positive cells), compared with GR103691 (hippocampal CA1 region; edaravone 3 or 10 mg/kg) | LDH release of the control cells (HT22 cells [1]; HT22 cells under normoxia 42 h (N42), added after 18-hour culture) | increase of LDH release caused by H18/R24 (HT22 cells [1]; [5]) | LDH release of H18/R24-treated cells (hypoxia/reoxygenation-induced cell death) (HT22 cells [1]; [6]) | concentration at which the reduction of LDH release of H18/R24-treated cells was significant (HT22 cells [1]; [6]) [µM] | reduction of MTT value caused by glutamic acid (glutamic acid-induced cell death) (HT22 cells [2]) | reduction of MTT value caused by TM (tunicamycin-induced cell death) (HT22 cells [3]) | transient increase of ROS in H18/R3-treated cells (H2DCFDA-positive cells) (HT22 cells [4]) | cell death in the hippocampal CA1 region (FJB-positive cells) (hippocampal CA1 region; [7]) | ssDNA-positive cells in the hippocampal CA1 region (hippocampal CA1 region; [7]) | cell death in the hippocampal CA1 region (FJB-positive cells) (hippocampal CA1 region; [8]) | ssDNA-positive cells in the hippocampal CA1 region (hippocampal CA1 region; [8])
1 | CC1=NN(c2ccccc2)C(=O)C1 [edaravone, reference compound] | almost the same level | almost the same level | – | – | – | – | – | – | – | – | – | – | –
2 | COc1ccccc1N1CCN(CCCCNC(=O)c2ccc(-c3ccc(C(C)=O)cc3)cc2)CC1 [GR103691, 4′-acetyl-N-[4-[4-(2-methoxyphenyl)-1-piperazinyl]butyl]-[1,1′-biphenyl]-4-carboxamide] | – | – | not influenced | almost the maximum effect | reduced the LDH release of the H18/R24-treated cells in a concentration-dependent manner | ≥ 1 | significantly recovered the reduction of MTT value | did not influence the reduction of MTT value | inhibited | significantly inhibited | significantly decreased | inhibited such cell death in a dose-dependent manner | decreased by GR103691 in a dose-dependent manner
3 | CCCCN1CCCC1CNC(=O)c1cc(C#N)c2ccccc2c1OC (centres unmarked) [nafadotride, reference compound] | – | – | – | did not inhibit apoptosis; also recorded: did not influence increase of LDH release | – | – | – | – | – | – | – | – | –
